# Columns and labels:
# Type in all cases: functional, cell-based
# HeLa = assay: Cytotoxicity against human HeLa cells by MTT assay
# HepG2 [1] = assay: Cytotoxicity against human HepG2 cells after 48 hrs by MTT assay; details: HepG2, 48 h
# BGC-823 = assay: Cytotoxicity against human BGC823 cells after 48 hrs by MTT assay; details: BGC-823, 48 h
# MDA-MB-231 = assay: Cytotoxicity against human MDA-MB-231 cells after 48 hrs by MTT assay; details: MDA-MB-231, 48 h
# K562 [2] = assay: Cytotoxicity against human K562 cells after 48 hrs by MTT assay; details: K562, 48 h
# HL-60 [3] = assay: Cytotoxicity against human HL60 cells after 48 hrs by MTS assay; details: HL-60, 48 h
# HepG2 [4] = assay: Cytotoxicity against human HepG2 cells after 44 hrs by MTT assay; details: HepG2, 44 h
# KB = assay: Cytotoxicity against human KB cells after 48 hrs by MTT assay
# HT-29 = assay: Cytotoxicity against human HT-29 cells after 48 hrs by MTS assay; details: HT-29, 48 h
# HL-60 [5] = assay: Cytotoxicity against human HL60 cells after 48 hrs by MTT assay; details: HL-60, 48 h
# A549 = assay: Cytotoxicity against human A549 cells after 48 hrs by MTS assay; details: A549, 48 h
# HepG2 [6] = assay: Cytotoxicity against human HepG2 cells by MTT assay
# Bel-7402 [7] = assay: Cytotoxicity against human Bel7402 cells by MTT assay
# MCF7 [8] = assay: Cytotoxicity against human MCF7 cells after 48 hrs by MTS assay; details: MCF7, 48 h
# MCF7 [9] = assay: Cytotoxicity against human MCF7 cells after 48 hrs by MTT assay; details: MCF7, 48 h
# K562 [10] = assay: Cytotoxicity against human K562 cells after 48 to 72 hrs by MTT assay
# Bel-7402 [11] = assay: Cytotoxicity against human Bel7402 cells after 48 hrs by MTT assay; details: Bel-7402, 48 h
# Bel-7402 [12] = assay: Cytotoxicity against human Bel7402 cells after 44 hrs by MTT assay; details: Bel-7402, 44 h
# HL-60 [13] = assay: Cytotoxicity against human HL60 cells after 48 to 72 hrs by MTT assay
# HepG2 [14] = assay: Cytotoxicity against human HepG2 cells after 48 hrs by BrDU-incorporation based ELISA; details: HepG2, 48 h
# MCF7 [15] = assay: Cytotoxicity against human MCF7 cells after 24 hrs by MTT assay; details: MCF7, 24 h
structure (smiles),measurement,setting,value
CCn1c2cc(OC)ccc2c2ccnc(C)c21,IC50,HeLa,17 µM
CC(C)=CCC/C(C)=C/COc1cc(O)c2c(c1)C(=O)c1cc(C)cc(O)c1C2=O,IC50,HepG2 [1],15 µM
CC(C)=CCc1c(O)cc2oc3cc(O)ccc3c(=O)c2c1O,IC50,BGC-823,12.1 µM
O=c1c2ccc(O)c(O)c2oc2cccc(O)c12,IC50,BGC-823,10.1 µM
N#CC1=C(N)Oc2c(ccc3ccccc23)C1c1cccc([N+](=O)[O-])c1 (centres undefined),IC50,MDA-MB-231,18.1 µM
CC(C)c1cc2c(cc1O)[C@@]1(C)CCCC(C)(C)[C@@H]1C(=O)C2,IC50,K562 [2],15.9 µM
CCOC(=O)c1cc2c3ccccc3n(Cc3ccccc3)c2cn1,IC50,HeLa,13 µM
O=c1c2ccc(O)cc2oc2cc(O)ccc12,IC50,BGC-823,12.9 µM
Cc1cc(O)c2c(c1)C(=O)c1cc(O)c(CN3CCOCC3)c(O)c1C2=O,IC50,HepG2 [1],17.9 µM
Cc1cc(O)c2c(c1)C(=O)c1cc(O)c(CN3CCCCC3)c(O)c1C2=O,IC50,MDA-MB-231,12.3 µM
CCCCCCOc1cccc2c1C(=O)c1c(OCCCCCC)cc(Cn3cc(C)c(=O)[nH]c3=O)cc1C2=O,IC50,HepG2 [1],4.2 µM
c1ccc2c(c1)ncn2CCCn1c2ccccc2c2ccccc21,IC50,HL-60 [3],7.91 µM
Cc1cc2ncn(CCCCCn3c4ccccc4c4ccccc43)c2cc1C,IC50,HL-60 [3],14.7 µM
N#CC1=C(N)Oc2ccc3ccccc3c2C1c1ccc(Br)cc1 (centres undefined),IC50,MDA-MB-231,6.1 µM
CCCNC1=CC(=O)c2c(O)c3c(c(O)c2C1=O)C[C@](C)(O)[C@H](O)C3,IC50,HepG2 [1],9.98 µM
O=C(O)c1cc(O)c2c(c1)C(=O)c1c(O)cccc1C2=O,IC50,HepG2 [4],16.3 µM
Cc1ccc(C2C3=C(CC(C)(C)CC3=O)N(c3ccc(Cl)cc3)C3=C2C(=O)CC(C)(C)C3)cc1,IC50,HepG2 [1],9.34 µM
CC(=O)Oc1cc(OC(C)=O)c2c(c1)C(=O)c1cc(C(=O)O)cc(OC(C)=O)c1C2=O,IC50,MDA-MB-231,8.1 µM
N#CC1=C(N)Oc2c(ccc3ccccc23)C1c1ccc(Cl)cc1 (centres undefined),IC50,KB,14.7 µM
Clc1ccc(-c2nc(Cn3cc(COc4ccc(Br)cc4)nn3)cc3c2[nH]c2ccccc23)cc1,IC50,HT-29,15.6 µM
C[C@]1(O)Cc2c(O)c3c(c(O)c2C[C@H]1O)C(=O)C=C(NCc1ccccc1)C3=O,IC50,HepG2 [1],13.4 µM
c1ccc2c(c1)c1ccccc1n2CCCCCn1ccnc1,IC50,HL-60 [3],14.4 µM
CCOC(=O)C(C)(C)Oc1cc(O)c2c(c1)C(=O)c1cc(C)cc(O)c1C2=O,IC50,MDA-MB-231,7.72 µM
CN(C)CCNC1=CC(=O)c2c(O)c3c(c(O)c2C1=O)C[C@](C)(O)[C@H](O)C3,IC50,HepG2 [1],2.26 µM
CCn1c2c(c3ccccc31)CCC(CN1CCOCC1)C2=O (centres undefined),IC50,K562 [2],13.8 µM
N#CC1=C(N)Oc2c(ccc3ccccc23)C1c1ccc([N+](=O)[O-])cc1 (centres undefined),IC50,KB,20 µM
CC(CO)c1cc2c(cc1O)[C@@]1(C)CCCC(C)(C)[C@@H]1CC2 (some centres undefined),IC50,HL-60 [5],16.2 µM
Cc1cc2ncn(CCCCn3c4ccccc4c4ccccc43)c2cc1C,IC50,A549,19.4 µM
C=CCn1c2c(c3ccccc31)CCC(CN(C)C)C2=O (centres undefined),IC50,K562 [2],3.29 µM
COc1ccc(-c2nc(Cn3cc(CN4C(=O)c5cccc6cccc(c56)C4=O)nn3)cc3c2[nH]c2ccccc23)cc1OC,IC50,HT-29,7.46 µM
CCn1c2ccccc2c2cc(C(=O)OC)ncc21,IC50,HeLa,17 µM
CN(C)CC1CCc2c(n(C)c3ccccc23)C1=O (centres undefined),IC50,K562 [2],17.3 µM
COc1ccc2c3ccnc(C)c3n(C)c2c1,IC50,HepG2 [6],16 µM
CC(C)c1cc2c(cc1O)[C@@]1(C)C[C@H](O)CC(C)(C)[C@@H]1CC2,IC50,HL-60 [5],17 µM
O=C(NCCN1CCOCC1)c1cc(O)c2c(c1)C(=O)c1cc(O)cc(O)c1C2=O,IC50,HepG2 [1],20 µM
CCN(CC)CCOc1cc(O)c2c(c1)C(=O)c1cc(C)cc(O)c1C2=O,IC50,HepG2 [1],5.64 µM
COC1=CC(=O)C[C@@]2(OC)Oc3ccccc3C[C@@]12O,IC50,HL-60 [5],4.08 µM
COc1cc2oc3cc(O)c(CC=C(C)C)c(O)c3c(=O)c2c(CC=C(C)C)c1OC,IC50,KB,12.8 µM
C#CCNC1=CC(=O)c2c(O)c3c(c(O)c2C1=O)C[C@](C)(O)[C@H](O)C3,IC50,HepG2 [1],10.9 µM
CC(C)=CCC/C(C)=C/Cc1c(O)ccc2oc3cc(O)cc(O)c3c(=O)c12,IC50,KB,14.5 µM
COc1ccc(CNC2=CC(=O)c3c(O)c4c(c(O)c3C2=O)C[C@](C)(O)[C@H](O)C4)cc1,IC50,HepG2 [1],10.1 µM
c1ccc2c(c1)ncn2CCCCCn1c2ccccc2c2ccccc21,IC50,HL-60 [3],14.1 µM
O=C1c2cccc(O)c2C(=O)c2c(O)cc(Cn3ccc(=O)[nH]c3=O)cc21,IC50,HepG2 [1],3.9 µM
O=C(NCCN1CCCCC1)c1cc(O)c2c(c1)C(=O)c1cc(O)cc(O)c1C2=O,IC50,HepG2 [1],19 µM
COC1=CC(=O)C[C@@]2(OC)Oc3ccc(O)cc3C[C@@]12O,IC50,HL-60 [5],10.6 µM
Cc1cc(O)c2c(c1)C(=O)c1cc(O)c(CN3CCN(C)CC3)c(O)c1C2=O,IC50,MDA-MB-231,10.4 µM
COc1cc(Cn2c3ccc(NC(=O)CCN(C)C)cc3c(=O)c3cc(NC(=O)CCN(C)C)ccc32)cc(OC)c1,IC50,K562 [2],4.7 µM
CCOC(=O)c1cc2c3ccccc3n(Cc3c(F)c(F)c(F)c(F)c3F)c2cn1,IC50,Bel-7402 [7],9 µM
Cc1cc(O)c2c(c1)C(=O)c1cc(OCCN3CCOCC3)cc(O)c1C2=O,IC50,MDA-MB-231,4.24 µM
c1ccc2c(c1)ncn2CCCCn1c2ccccc2c2ccccc21,IC50,MCF7 [8],5.06 µM
COc1cc(-c2nc(Cn3cc(CN4C(=O)c5ccccc5C4=O)nn3)cc3c2[nH]c2ccccc23)cc(OC)c1OC,IC50,HT-29,5.79 µM
COCCOCSc1nnc(-c2cccnc2)n1/N=C/c1c2ccccc2cc2ccccc12,IC50,K562 [2],0.09 µM
COc1cc2oc3cc(O)c(OC)c(CC=C(C)C)c3c(=O)c2c(O)c1C/C=C(/C)CO,IC50,KB,15.5 µM
CCSC1=C(SCC)C(=O)c2c(O)c3c(c(O)c2C1=O)C[C@@H](O)[C@@](C)(O)C3,IC50,HepG2 [1],11.6 µM
N#CC1=C(N)Oc2ccc3ccccc3c2C1c1ccc(Cl)cc1 (centres undefined),IC50,KB,11.7 µM
C[C@]1(O)Cc2c(O)c3c(c(O)c2C[C@H]1O)C(=O)C=C(N1CCC(c2ccccc2)CC1)C3=O,IC50,HepG2 [1],11.8 µM
COc1cc(O)c2c(c1O)C(=O)C1=C(C[C@@H](O)[C@@](C)(O)C1)C2=O,IC50,HepG2 [1],9.99 µM
same,IC50,MCF7 [9],2.69 µM
COC1=CC(=O)c2c(ccc3cc(O)ccc23)C1=O,IC50,K562 [10],13.8 µM
COc1c(O)cc2oc3cc(O)c(C/C=C(/C)CO)c(O)c3c(=O)c2c1C/C=C(\C)CCC=C(C)C [COWANOL],IC50,KB,12 µM
CC(=O)Oc1cc(OC(C)=O)c2c(c1)C(=O)c1cc(C)cc(OC(C)=O)c1C2=O [EMODIN TRIACETATE],IC50,MDA-MB-231,2.14 µM
CC(C)=CCc1c(O)c(CC=C(C)C)c2oc3c(O)ccc(O)c3c(=O)c2c1O [GARTANIN],IC50,Bel-7402 [11],7.78 µM
COc1c(O)cc2oc3cc(O)c(CC=C(C)C)c(O)c3c(=O)c2c1CC=C(C)C [MANGOSTIN],IC50,KB,14.1 µM
Cc1cc(=O)[nH]c2c1C(=O)c1ccccc1C2=O [MARCANIN A],IC50,Bel-7402 [12],9.54 µM
COc1cc(O)cc2ccc3cccc(O)c3c12 [MOSCATIN],IC50,HL-60 [13],19.2 µM
CC(C)=CCC/C(C)=C/Cc1c(O)c(O)cc2oc3cc(O)c(CC=C(C)C)c(O)c3c(=O)c12 [NORCOWANIN],IC50,KB,10.4 µM
c1ccc2nc3ccccc3nc2c1 [PHENAZINE],IC50,HepG2 [14],7.8 µM
CCN(CC)CCCC(C)Nc1c2ccc(Cl)cc2nc2ccc(OC)cc12 (centres undefined) [QUINACRINE],IC50,MCF7 [15],7.5 µM
CC(C)c1cc2c(cc1O)[C@@]1(C)CCCC(C)(C)[C@@H]1CC2=O [SUGIOL],IC50,K562 [2],6.7 µM

# From ChEMBL document CHEMBL4316584, “All that glitters is not gold: Panning cytotoxic natural products and derivatives with a fused tricyclic backbone by the estimation of their leadlikeness for cancer treatment” (Eur J Med Chem, 2019)
